These are literature values, as cited in patent publication US20250352536A1, “NEURORESTORATION COMPOSITIONS IMPLEMENTING MULTIPLE NEUROPLASTICITY INDUCING MECHANISMS OF ACTION” (Neuro-Innovators, Inc., priority 2022, published 2025).

In the data set the test system is recurrent stroke. To be noted: compared with aspirin, previous clinical trials.

As for `O=C1CCc2cc(OCCCCc3nnnn3C3CCCCC3)ccc2N1` [cilostazol, Cilostazol], the hemorrhagic events entry was “fewer hemorrhagic events” and the “incidence of recurrent stroke” value is recorded as “significantly reduce the incidence of recurrent stroke”.
